Source: patent US20240058283A1, “THE MODE OF ACTION OF N-MeDCPA ON TRPC CHANNELS” (West Virginia University Board of Governors on Behalf of …, priority 2022, published 2024)

How the values were obtained:
[1] = target: T1, TRPC4 (Homo sapiens, UniProt Q9UBN4); assay: FIG. 4 TRPC4 overexpressing cells, fura, OAG in the presence of Ca2+; format: cell-based; conditions: TRPC4 O/E cells, Ca2+ present, N=4
T1 construct: expressed in transfected cells; host or cells: HEK293 (transient transfection)
T1 sequence (Q9UBN4 1-977): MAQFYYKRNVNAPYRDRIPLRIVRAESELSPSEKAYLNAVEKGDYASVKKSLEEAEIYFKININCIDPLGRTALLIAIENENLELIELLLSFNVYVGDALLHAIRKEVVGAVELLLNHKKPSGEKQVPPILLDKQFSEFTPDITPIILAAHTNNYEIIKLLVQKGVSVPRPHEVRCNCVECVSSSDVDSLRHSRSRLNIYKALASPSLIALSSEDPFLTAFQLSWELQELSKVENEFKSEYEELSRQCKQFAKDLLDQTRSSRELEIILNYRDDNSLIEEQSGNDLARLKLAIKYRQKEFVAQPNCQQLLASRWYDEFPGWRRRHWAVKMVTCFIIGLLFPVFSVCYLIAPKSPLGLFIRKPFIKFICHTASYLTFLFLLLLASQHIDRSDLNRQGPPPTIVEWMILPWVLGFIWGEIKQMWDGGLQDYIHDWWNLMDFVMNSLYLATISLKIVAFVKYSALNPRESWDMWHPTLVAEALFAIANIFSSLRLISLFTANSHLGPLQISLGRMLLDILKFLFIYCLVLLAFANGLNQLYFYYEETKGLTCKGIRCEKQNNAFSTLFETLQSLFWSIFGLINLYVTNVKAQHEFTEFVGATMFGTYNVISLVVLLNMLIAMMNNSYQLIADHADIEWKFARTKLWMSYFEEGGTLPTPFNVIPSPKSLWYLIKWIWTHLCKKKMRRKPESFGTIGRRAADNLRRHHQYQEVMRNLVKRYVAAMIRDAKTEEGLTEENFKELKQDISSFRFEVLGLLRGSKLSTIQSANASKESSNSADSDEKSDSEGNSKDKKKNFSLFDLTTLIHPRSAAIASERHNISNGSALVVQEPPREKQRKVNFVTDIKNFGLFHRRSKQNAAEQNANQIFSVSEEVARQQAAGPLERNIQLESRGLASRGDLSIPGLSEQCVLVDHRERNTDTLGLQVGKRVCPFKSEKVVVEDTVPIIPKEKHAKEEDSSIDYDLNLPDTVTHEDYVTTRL
Text: (§1) The assay was done in the presence of Ca^2+. OAG (1-Oleoyl-2-acetyl-sn-glycerol) is a cell permeable DAG analog and directly activates these TRPC channels (i.e. TRPC4 and TRPC5).

[2] = target: T2, TRPC5 (Homo sapiens, UniProt Q9UL62); assay: FIG. 4 TRPC5 overexpressing cells, fura, OAG in the presence of Ca2+; format: cell-based; conditions: TRPC5 O/E cells, N=4
T2 construct: expressed in transfected cells; host or cells: HEK293 (transient transfection)
T2 sequence (Q9UL62 1-973): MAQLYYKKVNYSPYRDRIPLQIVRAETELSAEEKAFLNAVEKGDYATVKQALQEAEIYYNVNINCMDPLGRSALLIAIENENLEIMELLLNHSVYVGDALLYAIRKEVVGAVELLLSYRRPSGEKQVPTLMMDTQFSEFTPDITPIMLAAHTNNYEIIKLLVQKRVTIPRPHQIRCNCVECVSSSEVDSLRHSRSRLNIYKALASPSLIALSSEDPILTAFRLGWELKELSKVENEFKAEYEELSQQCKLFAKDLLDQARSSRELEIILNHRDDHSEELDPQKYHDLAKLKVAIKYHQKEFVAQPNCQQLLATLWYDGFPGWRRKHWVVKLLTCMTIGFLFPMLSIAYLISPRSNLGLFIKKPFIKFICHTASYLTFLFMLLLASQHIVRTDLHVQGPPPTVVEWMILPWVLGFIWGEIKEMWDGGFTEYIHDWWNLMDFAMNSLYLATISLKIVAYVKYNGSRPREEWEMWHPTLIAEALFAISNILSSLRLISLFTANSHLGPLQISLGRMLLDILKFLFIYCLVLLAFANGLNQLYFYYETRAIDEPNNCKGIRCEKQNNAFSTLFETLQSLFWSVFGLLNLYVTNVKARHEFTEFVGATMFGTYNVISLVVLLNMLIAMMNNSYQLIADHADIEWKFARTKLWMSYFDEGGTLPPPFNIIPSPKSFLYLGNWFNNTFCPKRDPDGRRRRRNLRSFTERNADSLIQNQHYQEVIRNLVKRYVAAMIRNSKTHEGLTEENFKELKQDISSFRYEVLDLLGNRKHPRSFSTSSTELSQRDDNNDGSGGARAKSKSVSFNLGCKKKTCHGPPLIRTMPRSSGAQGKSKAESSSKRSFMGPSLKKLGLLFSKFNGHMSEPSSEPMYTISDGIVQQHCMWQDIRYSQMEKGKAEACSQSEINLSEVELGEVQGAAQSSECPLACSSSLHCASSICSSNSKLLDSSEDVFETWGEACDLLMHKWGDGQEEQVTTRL
Text: as §1

[3] = test system: Mouse splenic monocytes; assay: Osteoclast differentiation of mouse splenic monocytes; format: cell-based; conditions: 21 days of culture with RANKL+m-CSF; 100 nM ELP-004
Description: ELP-004 blocks TNF-α-induced osteoclast differentiation. Mouse splenic monocytes were induced to differentiate into osteoclasts. Results were obtained of osteoclast cells after 21 days of culture with RANKL+m-CSF alone or with the addition of 100 nM ELP-004. […] Thus, ELP-004 inhibits osteoclastogenesis.

[4] = test system: Mouse splenic monocytes; assay: Osteoclast resorption (pit formation) on Corning osteo-assay surface plates; format: cell-based; conditions: 1 ng/ml RANKL, 2 ng/ml TNFα, 50 ng/ml m-CSF; 7, 14 or 21 days; 100 nM ELP-004
Description: Mouse splenic monocytes were induced to differentiate by the addition of 1 ng/ml RANKL, 2 ng/ml TNFα and 50 ng/ml m-CSF. The panels of FIG. 6 show a representative photomicrograph of cells after 7, 14, or 21 days of culture on Corning osteo-assay surface plates with RANKL+mCSF+TNFα or with the addition of 100 nM ELP-004.

[5] = target: dopamine transporter (Homo sapiens, UniProt Q01959); assay: Dopamine transport
dopamine transporter, sequence (Q01959 whole entry): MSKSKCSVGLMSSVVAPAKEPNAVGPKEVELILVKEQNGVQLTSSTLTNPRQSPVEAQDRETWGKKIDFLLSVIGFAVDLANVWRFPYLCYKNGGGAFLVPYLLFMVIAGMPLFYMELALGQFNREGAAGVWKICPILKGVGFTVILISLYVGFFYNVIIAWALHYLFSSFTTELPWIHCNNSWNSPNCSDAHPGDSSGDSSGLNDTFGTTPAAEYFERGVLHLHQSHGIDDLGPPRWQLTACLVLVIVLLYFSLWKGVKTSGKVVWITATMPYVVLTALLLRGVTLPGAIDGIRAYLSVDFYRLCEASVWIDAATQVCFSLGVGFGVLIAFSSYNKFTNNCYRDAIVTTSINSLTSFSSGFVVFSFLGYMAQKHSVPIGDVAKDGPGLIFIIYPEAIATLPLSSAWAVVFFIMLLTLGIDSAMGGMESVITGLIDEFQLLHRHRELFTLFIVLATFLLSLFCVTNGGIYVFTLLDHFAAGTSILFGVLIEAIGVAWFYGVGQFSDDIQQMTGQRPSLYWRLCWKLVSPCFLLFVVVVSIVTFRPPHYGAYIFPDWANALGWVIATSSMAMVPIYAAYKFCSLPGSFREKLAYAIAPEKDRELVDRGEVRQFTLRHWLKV
Description: ELP-004 was evaluated for its ability to cross the blood brain barrier. […] Other medications, such as for example but not limited to bupropion are known to cause problems due to dopamine transporter binding.

[6] = Elimination after administration per os; format: in vivo; conditions: administered per os
[7] = test system: CYP enzymes; assay: Induction of CYP enzymes; format: in vitro ADME

CCC(=O)N(C)c1ccc(Cl)c(Cl)c1 [ELP-004, N-(3,4-dichlorophenyl)-N-methylpropanamide]
IC50 [1]: 172 nM
maximal inhibition of TRPC5 against the >50% threshold [2]: does not reach the threshold of >50% inhibition
IC50 ([2]; OAG, Ca2+ present): 11 nM
development of multinucleated osteoclasts [3]: inhibited development of multinucleated osteoclasts
pit formation (osteoclast resorption) [4]: inhibited pit formation
problems with dopamine transport [5]: does not cause problems with dopamine transport
time until essentially eliminated [6]: ≤ 4 h
effect on induction of CYP enzymes [7]: no deleterious effect on induction of CYP enzymes
